Read-outs that look alike come from different tables or passages of the source.
Legend:
CB2 receptor = molecular target: T1, CB2 receptor (Homo sapiens, UniProt P34972); assay: cAMP assay (HitHunter) in CHO-K1-CB2 cells, agonist and antagonist modes; assay type: cell-based; details: for CB2 Mode of action: CHO-K1-CB2 cells, forskolin 20 μM, NA = no activity; for EC50 / CB2 Efficacy (%): agonist or antagonist mode; for EC50: antagonist mode against CP-55940 at EC90; for CB2 Efficacy (%): percentage of the response to CP-55940
T1 construct: host or cells: CHO-K1-CB2

CB1 receptor = molecular target: T2, CB1 receptor (Homo sapiens, UniProt P21554); assay: cell-based; assay type: cell-based
T2 construct: host or cells: CHO-K1-CB1

human CB1 = molecular target: human CB1; set-up: method as in PMID 28861508; details: reference standard contaminated with 2% Δ9-THC; read-out: approximate Ki at human CB1; cited from earlier work
human CB2 receptors = molecular target: human CB2 receptors; set-up: method as in PMID 28861508; details: reference standard contaminated with 2% Δ9-THC; read-out: approximate Ki at human CB2; cited from earlier work
[1] = percentage of the response to CP-55940, agonist or antagonist mode

T2 sequence (P21554 whole entry): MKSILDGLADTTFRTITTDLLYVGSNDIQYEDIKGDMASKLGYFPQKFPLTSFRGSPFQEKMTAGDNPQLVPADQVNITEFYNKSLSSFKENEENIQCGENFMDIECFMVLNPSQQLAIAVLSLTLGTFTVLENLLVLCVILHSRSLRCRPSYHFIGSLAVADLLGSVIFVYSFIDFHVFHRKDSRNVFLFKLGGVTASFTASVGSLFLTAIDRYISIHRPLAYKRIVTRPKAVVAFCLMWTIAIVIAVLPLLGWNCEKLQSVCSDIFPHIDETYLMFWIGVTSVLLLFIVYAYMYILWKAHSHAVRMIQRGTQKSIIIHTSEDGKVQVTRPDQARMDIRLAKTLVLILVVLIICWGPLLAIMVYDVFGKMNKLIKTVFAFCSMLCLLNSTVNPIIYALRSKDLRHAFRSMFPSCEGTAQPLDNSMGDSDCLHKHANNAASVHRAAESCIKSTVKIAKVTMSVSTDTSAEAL
T1 sequence (P34972 whole entry): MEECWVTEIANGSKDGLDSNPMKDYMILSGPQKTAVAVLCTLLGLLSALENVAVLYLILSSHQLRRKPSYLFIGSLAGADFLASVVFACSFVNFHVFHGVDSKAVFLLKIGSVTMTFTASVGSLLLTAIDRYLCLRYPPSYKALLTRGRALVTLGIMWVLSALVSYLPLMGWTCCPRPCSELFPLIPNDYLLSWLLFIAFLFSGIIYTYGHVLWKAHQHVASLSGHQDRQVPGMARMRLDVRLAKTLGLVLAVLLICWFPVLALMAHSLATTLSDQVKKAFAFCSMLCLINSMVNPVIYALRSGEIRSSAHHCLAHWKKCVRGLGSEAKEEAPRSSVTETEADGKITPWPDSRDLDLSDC

What does the source list for COc1ccc(C(=O)c2c(C)n(CCN3CCOCC3)c3cc(I)ccc23)cc1 [AM-630]?
CB2 Mode of action (CB2 receptor): Antagonist; EC50 (CB2 receptor; read-out: CB2 EC50): 0.146 ± 0.084 µM; CB2 Efficacy (%) (CB2 receptor): 100%

With C=C(C)[C@@H]1CCC(C)=C[C@H]1c1c(O)cc(CCCCC)cc1O [CBD, cannabidiol, reference compound] as the molecule, how does the “CB1 Mode of action” value (CB1 receptor; CHO-K1-CB1 cells, forskolin 20 μM, NA = no activity) read?
The value was “Antagonist”.

And the “CB1 Efficacy (%)” value (CB1 receptor; [1])?
Its value is 40%.

And the “CB2 Mode of action” value (CB2 receptor)?
Its value is “Antagonist”.

What about the “CB2 Efficacy (%)” value (CB2 receptor) of the same molecule?
Its value is 100%.

Which EC50 (CB1 receptor) does the source give for C=C(C)[C@@H]1CCC(C)=C[C@H]1c1c(O)cc(CCCCC)c(C(=O)O)c1O [CBDA, cannabidiolic acid] here?
The EC50 was over 10 µM.

And the “CB1 Efficacy (%)” value (CB1 receptor; [1])?
Its value is 0%.

What about the EC50 (CB2 receptor; read-out: CB2 EC50) of the same molecule?
Its EC50 is over 100 µM.

And the “fold weaker than CBD at CB2 receptor as an antagonist” value (CB2 receptor; comparison of EC50 values)?
Its value is “more than 10 fold”.

And the “CB2 Efficacy (%)” value (CB2 receptor)?
Its value is −23%.

Which results are given for CCCCCCC(C)(C)c1ccc([C@@H]2C[C@H](O)CC[C@H]2CCCO)c(O)c1 [CP-55940, reference compound]?
CB1 Efficacy (%) (CB1 receptor): 100%; CB1 Mode of action (CB1 receptor): Agonist; CB2 Mode of action (CB2 receptor): Agonist; CB2 Efficacy (%) (CB2 receptor): 100%

With CCCCCc1cc(O)c2c(c1)OC(C)(C)[C@@H]1CCC(C)=C[C@@H]21 [Δ^9-THC, Δ^9-tetrahydrocannabinol] as the molecule, how does the “CB2 Mode of action” value (CB2 receptor) read?
Its value is “Weak partial agonist”.

And the “CB2 Efficacy (%)” value (CB2 receptor)?
Its value is 20%.

With CCCCCc1cc2c(c(O)c1C(=O)O)[C@@H]1C=C(C)CC[C@H]1C(C)(C)O2 [Δ^9-THCA, Δ^9-tetrahydrocannabinolic acid] as the molecule, how does the “CB1 Efficacy (%)” value (CB1 receptor) read?
Its value is 100%.

And the “CB1 Mode of action” value (CB1 receptor)?
The value was “Weak agonist”.

What about the EC50 (CB1 receptor) of the same molecule?
Its EC50 is 1.8 ± 0.7 µM.

What about the EC50 (CB2 receptor; CB2 EC50 (μM)) of the same molecule?
The EC50 was 30 ± 15 µM.

What about the “CB2 Mode of action” value (CB2 receptor) of the same molecule?
Its value is “Weak agonist”.

And the “CB2 Efficacy (%)” value (CB2 receptor)?
Its value is 100%.

What about the Ki (human CB1) of the same molecule?
The Ki was about 3.1 µM.

And the Ki (human CB2 receptors)?
The Ki was about 12.5 µM.
